Laboratory results: patent US5698547A, “Cephalosporin antibiotics” (Microcide Pharmaceuticals, Inc., priority 1995, dated 1997)
Values after ≈ are worked out from the molar mass of the structure shown. Counter-ions that a name gives are not always drawn.

Tested on: S. aureus Col (Meth^R) (lac^-)
Assay: MIC by agar dilution, S. aureus Col (Meth^R) (lac^-)
Assay type: cell-based
Details: Staphylococcus aureus; agar dilution; S. aureus Col (Meth^R) (lac^-); read-out: MIC
In short: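 Agar dilution per NCCLS (1991): two-fold dilutions from 128 μg/mL down to ≤0.25 μg/mL in Mueller-Hinton agar, each level in duplicate. Spots of about 10^4 cfu of log-phase culture; 16-20 h at 35°-36° C. MIC in μg/ml is the lowest concentration inhibiting growth.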

Row | Structure (SMILES) | MIC
1 | Cn1nnnc1SCc1ccccc1SC1=C(C(=O)O)N2C(=O)[C@@H](NC(=O)Cc3ccccc3)[C@H]2SC1 [Cmpd 71] | 16 µg/mL (≈ 28.8 µM)
2 | O=C(Cc1ccccc1)N[C@@H]1C(=O)N2C(C(=O)O)=C(Sc3ccccc3CSC3=NCCN3)CS[C@H]12 [Cmpd 72] | 4 µg/mL (≈ 7.4 µM)
3 | C[n+]1ccc(SCc2ccccc2SC2=C(C(=O)[O-])N3C(=O)[C@@H](NC(=O)Cc4ccccc4)[C@H]3SC2)cc1 [Cmpd 73, (7R)-7-[(Phenylacetyl)amino]-3-(2-(N-methylpyridin-4-ium)thiomethyl)phenylthio)-3-cephem-4-carboxylate, inner salt] | 4 µg/mL
4 | CCN=C(NCC)SCc1ccccc1SC1=C(C(=O)O)N2C(=O)[C@@H](NC(=O)Cc3ccccc3)[C@H]2SC1 [Cmpd 74, (7R)-7-[(Phenylacetyl)amino]-3-(2-N,N'-diethylisothiouroniummethylphenylthio)-3-cephem-4-carboxylate, inner salt] | 16 µg/mL
5 | O=C(Cc1ccccc1)N[C@@H]1C(=O)N2C(C(=O)O)=C(Sc3ccccc3CSc3ncccn3)CS[C@H]12 [Cmpd 75] | 8 µg/mL (≈ 14.5 µM)
6 | CN=C(N)SCc1ccccc1SC1=C(C(=O)O)N2C(=O)[C@@H](NC(=O)Cc3ccccc3)[C@H]2SC1 [Cmpd 76, (7R)-7-[(Phenylacetyl)amino]-3-(2-N-methylisothiouroniummethylphenylthio)-3-cephem-4-carboxylate, inner salt] | 2 µg/mL
7 | Cc1nnc(SCc2ccccc2SC2=C(C(=O)O)N3C(=O)[C@@H](NC(=O)Cc4ccccc4)[C@H]3SC2)s1 [Cmpd 77] | 8 µg/mL (≈ 14 µM)
8 | CC(=O)NC(=N)SCc1ccccc1SC1=C(C(=O)O)N2C(=O)[C@@H](NC(=O)Cc3ccccc3)[C@H]2SC1 [Cmpd 78, (7R)-7-[(Phenylacetyl)amino]-3-(2-N-acetylamidinothiomethylphenylthio)-3-cephem-4-carboxylic acid] | 4 µg/mL (≈ 7.19 µM)
9 | NC(=NC1CC1)SCc1ccccc1SC1=C(C(=O)O)N2C(=O)[C@@H](NC(=O)Cc3ccccc3)[C@H]2SC1 [Cmpd 79, (7R)-7-[(Phenylacetyl)amino]-3-(2-N-cyclopropylisothiouroniummethylphenylthio)-3-cephem-4-carboxylate, inner salt] | 4 µg/mL
10 | N=C(N)SCc1cccc(SC2=C(C(=O)O)N3C(=O)[C@@H](NC(=O)Cc4ccccc4)[C@H]3SC2)c1 [Cmpd 80, (7R)-7-[(Phenylacetyl)amino]-3-(3-isothiouroniummethylphenylthio)-3-cephem-4-carboxylate, inner salt] | 2 µg/mL
11 | C[n+]1cccc(SC2=C(C(=O)[O-])N3C(=O)[C@@H](NC(=O)Cc4ccccc4)[C@H]3SC2)c1-c1ccccc1 [Cmpd 82, (7R)-7-[(Phenylacetyl)amino]-3-(2-phenyl-N-methylpyridin-3-iumthio)-3-cephem-4-carboxylate] | 4 µg/mL (≈ 7.73 µM)
12 | O=C(Cc1ccccc1)N[C@@H]1C(=O)N2C(C(=O)[O-])=C(Sc3ccc[n+](Cc4ccccc4)c3-c3ccccc3)CS[C@H]12 [Cmpd 83, (7R)-7-[(Phenylacetyl)amino]-3-(2-phenyl-N-benzylpyridin-3-iumthio)-3-cephem-4-carboxylate] | 4 µg/mL (≈ 6.74 µM)
13 | O=C(Cc1ccc(Cl)cc1)N[C@@H]1C(=O)N2C(C(=O)O)=C(Sc3cccnc3-c3ccccc3)CS[C@H]12 [Cmpd 84, (7R)-7-[(4-Chlorophenylacetyl)amino]-3-(2-phenylpyridin-3-ylthio)-3-cephem-4-carboxylic acid] | 2 µg/mL (≈ 3.72 µM)
14 | N#CCC(=O)N[C@@H]1C(=O)N2C(C(=O)O)=C(Sc3cccnc3-c3ccccc3)CS[C@H]12 [Cmpd 85, (7R)-7-[(Cyanoacetyl)amino]-3-(2-phenylpyridin-3-ylthio)-3-cephem-4-carboxylic acid] | 4 µg/mL (≈ 8.84 µM)
15 | Nc1nc(/C(=N/OC2CCCC2)C(=O)N[C@@H]2C(=O)N3C(C(=O)O)=C(Sc4cccnc4-c4ccccc4)CS[C@H]23)cs1 [Cmpd 86, (7R)-7-[(Z)-2-(aminothiazol-4-yl)-2-(cyclopentyloxyimino)acetamido]-3-(2-phenylpyridin-3-ylthio)-3-cephem-4-carboxylic acid] | 8 µg/mL (≈ 12.8 µM)
16 | Nc1nc(/C(=N/OCCF)C(=O)N[C@@H]2C(=O)N3C(C(=O)O)=C(Sc4ccnn4-c4ccccc4)CS[C@H]23)cs1 [Cmpd 90, (7R)-7-[(Z)-2-(aminothiazol-4-yl)-2-(2-fluoroethyloxyimino)acetamido]-3-(1-N-phenylpyrazol-5-ylthio)-3-cephem-4-carboxylic acid] | 8 µg/mL (≈ 13.6 µM)
17 | O=C(Cc1ccccc1)N[C@@H]1C(=O)N2C(C(=O)O)=C(Sc3cnnn3-c3ccccc3)CS[C@H]12 [Cmpd 91, (7R)-7-[(Phenylacetyl)amino]-3-(1-N-phenyl-1,2,3-triazol-5-ylthio)-3-cephem-4-carboxylic acid] | 4 µg/mL (≈ 8.1 µM)
18 | Nc1nc(-c2ccccc2)c(SC2=C(C(=O)O)N3C(=O)[C@@H](NC(=O)Cc4ccccc4)[C@H]3SC2)s1 [Cmpd 92, (7R)-7-[(Phenylacetyl)amino]-3-(2-amino-4-phenylthiazol-5-ylthio)-3-cephem-4-carboxylic acid] | 2 µg/mL (≈ 3.81 µM)
19 | O=C(Cc1ccccc1)N[C@@H]1C(=O)N2C(C(=O)O)=C(Sc3snnc3-c3ccccc3)CS[C@H]12 [Cmpd 93, (7R)-7-[(Phenylacetyl)amino]-3-(4-phenyl-1,2,3-thiadiazol-5-ylthio)-3-cephem-4-carboxylic acid] | 2 µg/mL (≈ 3.92 µM)
20 | O=C(Cc1ccccc1)N[C@@H]1C(=O)N2C(C(=O)O)=C(Sc3nnnn3-c3ccccc3)CS[C@H]12 [Cmpd 94, (7R)-7-[(Phenylacetyl)amino]-3-(1-N-phenyltetrazol-5-ylthio)-3-cephem-4-carboxylic acid] | 4 µg/mL (≈ 8.09 µM)
21 | O=C(Cc1ccccc1)N[C@@H]1C(=O)N2C(C(=O)O)=C(Sc3ccccc3-c3cnco3)CS[C@H]12 [Cmpd 95, (7R)-7-[(Phenylacetyl)amino]-3-(2-oxazol-5-ylphenylthio)-3-cephem-4-carboxylic acid] | 4 µg/mL (≈ 8.1 µM)
22 | NCc1ccccc1CC(=O)N[C@@H]1C(=O)N2C(C(=O)O)=C(Sc3ccnn3-c3ccccc3)CS[C@H]12 [Cmpd 96, (7R)-7-[((2-aminomethylphenyl)acetyl)amino]-3-(1-N-phenylpyrazol-5-ylthio)-3-cephem-4-carboxylic acid] | 8 µg/mL (≈ 15.3 µM)
23 | Nc1nc(/C(=N/OCCF)C(=O)N[C@@H]2C(=O)N3C(C(=O)O)=C(Sc4ccnn4-c4ccccc4)CS[C@H]23)c(Cl)s1 [Cmpd 98, (7R)-7-[(Z)-2-(2-amino-5-chlorothiazol-4-yl)-2-(2-fluoroethyloxyimino)acetamido]-3-(1-N-phenylpyrazol-5-ylthio)-3-cephem-4-carboxylic acid] | 2 µg/mL (≈ 3.2 µM)
24 | N=C(N)SCc1ccccc1SC1=C(C(=O)O)N2C(=O)[C@@H](NC(=O)Cc3ccc(O)cc3)[C@H]2SC1 [Cmpd 99, (7R)-7-[((4-Hydroxyphenyl)acetyl)amino]-3-(2-isothiouroniummethylphenylthio)-3-cephem-4-carboxylic acid, inner salt] | 4 µg/mL
25 | N=C(N)SCCc1ccccc1SC1=C(C(=O)O)N2C(=O)[C@@H](NC(=O)Cc3ccccc3)[C@H]2SC1 [Cmpd 100, (7R)-7-[(Phenylacetyl)amino]-3-(2-(2-isothiouronium)ethylphenylthio)-3-cephem-4-carboxylate, inner salt] | 4 µg/mL
26 | O=C(Cc1ccccc1)N[C@@H]1C(=O)N2C(C(=O)O)=C(Sc3ccnn3-c3ccccn3)CS[C@H]12 [Cmpd 105, (7R)-7-[(Phenylacetyl)amino]-3-(1-N-(pyridin-2-yl)pyrazol-5-ylthio)-3-cephem-4-carboxylic acid] | 4 µg/mL (≈ 8.1 µM)
